In PubChem BioAssay (NCI):
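Cells were grown in 96-well plates and exposed to each compound for 48 hours at five concentrations; endpoints were interpolated linearly between bracketing concentrations, or set to the highest concentration if not reached. TGI is the concentration that stops growth completely.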

Assays:
Experiment in all cases: growth of human tumour cells (NCI), 48 h
CAKI-1 renal = system: CAKI-1 renal
COLO 205 colon = system: COLO 205 colon
HL-60(TB) leukemia = system: HL-60(TB) leukemia
HS 578T breast = system: HS 578T breast
HT29 colon = system: HT29 colon
LOX IMVI melanoma = system: LOX IMVI melanoma
MOLT-4 leukemia = system: MOLT-4 leukemia
NCI-H226 lung = system: NCI-H226 lung
OVCAR-4 ovarian = system: OVCAR-4 ovarian
OVCAR-5 ovarian = system: OVCAR-5 ovarian
RXF 393 renal = system: RXF 393 renal
SF-539 CNS = system: SF-539 CNS
SK-MEL-2 melanoma = system: SK-MEL-2 melanoma
SK-OV-3 ovarian = system: SK-OV-3 ovarian
SNB-75 CNS = system: SNB-75 CNS
TK-10 renal = system: TK-10 renal
U251 CNS = system: U251 CNS
NCI/ADR-RES ovarian = system: NCI/ADR-RES ovarian
SW-620 colon = system: SW-620 colon
SF-268 CNS = system: SF-268 CNS

COC(=O)C1=C(C(=O)OC)SC2(S1)C(C(=O)OC)=C(C(=O)OC)Sc1c2ssc1=Nc1ccc(Cl)cc1
TGI (CAKI-1 renal): 2.21 µM | TGI (COLO 205 colon): 2.04 µM | TGI (HL-60(TB) leukemia): 6.74 µM | TGI (HS 578T breast): > 100 µM | TGI (HT29 colon): 1.78 µM | TGI (LOX IMVI melanoma): 1.16 µM | TGI (MOLT-4 leukemia): 5.04 µM | TGI (NCI-H226 lung): 3.38 µM | TGI (OVCAR-4 ovarian): 2.43 µM | TGI (OVCAR-5 ovarian): 2.81 µM | TGI (RXF 393 renal): 0.894 µM | TGI (SF-539 CNS): 1.68 µM | TGI (SK-MEL-2 melanoma): 1.36 µM | TGI (SK-OV-3 ovarian): 4.29 µM | TGI (SNB-75 CNS): 2.3 µM | TGI (TK-10 renal): 2.69 µM | TGI (U251 CNS): 2.64 µM

COC(=O)C1(C(=O)OC)N=C(C)OC1/C=C/c1ccccc1 (stereo not given)
TGI (CAKI-1 renal): > 100 µM | TGI (COLO 205 colon): > 100 µM | TGI (HL-60(TB) leukemia): > 100 µM | TGI (LOX IMVI melanoma): > 100 µM | TGI (MOLT-4 leukemia): > 100 µM | TGI (NCI-H226 lung): > 100 µM | TGI (NCI/ADR-RES ovarian): > 100 µM | TGI (OVCAR-4 ovarian): > 100 µM | TGI (OVCAR-5 ovarian): > 100 µM | TGI (RXF 393 renal): > 100 µM | TGI (SK-MEL-2 melanoma): > 100 µM | TGI (SK-OV-3 ovarian): > 100 µM | TGI (SNB-75 CNS): > 100 µM | TGI (SW-620 colon): > 100 µM | TGI (TK-10 renal): > 100 µM | TGI (U251 CNS): > 100 µM

Cc1cc(S(=O)(=O)/N=C(/[N-]S(=O)(=O)c2ccc(Cl)cc2)[n+]2ccc(N(C)C)cc2)c(SCC(=O)O)cc1Cl
TGI (CAKI-1 renal): > 100 µM | TGI (COLO 205 colon): > 100 µM | TGI (HL-60(TB) leukemia): > 100 µM | TGI (HS 578T breast): > 100 µM | TGI (HT29 colon): > 100 µM | TGI (LOX IMVI melanoma): > 100 µM | TGI (MOLT-4 leukemia): > 100 µM | TGI (NCI-H226 lung): > 100 µM | TGI (OVCAR-4 ovarian): > 100 µM | TGI (OVCAR-5 ovarian): > 100 µM | TGI (RXF 393 renal): > 100 µM | TGI (SF-268 CNS): > 100 µM | TGI (SF-539 CNS): > 100 µM | TGI (SK-OV-3 ovarian): > 100 µM | TGI (SNB-75 CNS): > 100 µM | TGI (SW-620 colon): > 100 µM | TGI (TK-10 renal): > 100 µM | TGI (U251 CNS): > 100 µM

COc1ccc(C2C3CCc4ccccc4C3=NN2S(=O)(=O)c2ccc(/C=C/C(=O)O)cc2)cc1 (stereo not given)
TGI (CAKI-1 renal): > 100 µM | TGI (COLO 205 colon): 7.43 µM | TGI (HL-60(TB) leukemia): 9.67 µM | TGI (HT29 colon): 13.6 µM | TGI (LOX IMVI melanoma): 24.5 µM | TGI (MOLT-4 leukemia): 25.3 µM | TGI (NCI-H226 lung): 74.7 µM | TGI (OVCAR-4 ovarian): 54.1 µM | TGI (OVCAR-5 ovarian): > 100 µM | TGI (RXF 393 renal): 31.4 µM | TGI (SF-268 CNS): 71.2 µM | TGI (SF-539 CNS): 6.29 µM | TGI (SK-MEL-2 melanoma): 9.79 µM | TGI (SK-OV-3 ovarian): 4.72 µM | TGI (SW-620 colon): > 100 µM | TGI (TK-10 renal): > 100 µM | TGI (U251 CNS): 11.6 µM

C/C(=N\Nc1nc2cccnc2s1)c1ccccn1
TGI (CAKI-1 renal): 12.2 µM | TGI (COLO 205 colon): > 100 µM | TGI (HL-60(TB) leukemia): > 100 µM | TGI (NCI/ADR-RES ovarian): 0.06 µM | TGI (OVCAR-4 ovarian): 29.5 µM | TGI (OVCAR-5 ovarian): > 64.4 µM | TGI (RXF 393 renal): 19.9 µM | TGI (SF-539 CNS): 20.6 µM | TGI (SK-MEL-2 melanoma): > 34.6 µM | TGI (SK-OV-3 ovarian): 2.79 µM | TGI (SNB-75 CNS): 6.06 µM | TGI (SW-620 colon): > 100 µM | TGI (U251 CNS): > 100 µM

Cc1c2ccncc2c(C)c2c1[nH]c1ccc(OCC(F)(F)F)cc12
TGI (CAKI-1 renal): 3.66 µM | TGI (COLO 205 colon): 3.18 µM | TGI (HT29 colon): 3.11 µM | TGI (LOX IMVI melanoma): 3.09 µM | TGI (MOLT-4 leukemia): 3.26 µM | TGI (NCI-H226 lung): 3.24 µM | TGI (OVCAR-4 ovarian): 3.48 µM | TGI (OVCAR-5 ovarian): 2.86 µM | TGI (RXF 393 renal): 3.46 µM | TGI (SF-268 CNS): 3.06 µM | TGI (SF-539 CNS): 3.16 µM | TGI (SK-MEL-2 melanoma): 3.19 µM | TGI (SK-OV-3 ovarian): 3.31 µM | TGI (SNB-75 CNS): 3.65 µM | TGI (SW-620 colon): 1.99 µM | TGI (TK-10 renal): 3.58 µM | TGI (U251 CNS): 2.98 µM

CCCCCC/C=C1\CCC(CN2CCOCC2)C1=O (stereo not given)
TGI (CAKI-1 renal): 31.4 µM | TGI (COLO 205 colon): 32.3 µM | TGI (HL-60(TB) leukemia): 15.7 µM | TGI (HT29 colon): 34.2 µM | TGI (LOX IMVI melanoma): 25.1 µM | TGI (MOLT-4 leukemia): 18.1 µM | TGI (NCI-H226 lung): 30 µM | TGI (OVCAR-4 ovarian): 38.8 µM | TGI (OVCAR-5 ovarian): 37.4 µM | TGI (SF-268 CNS): 43 µM | TGI (SF-539 CNS): 31.2 µM | TGI (SK-MEL-2 melanoma): 33.4 µM | TGI (SK-OV-3 ovarian): > 79.4 µM | TGI (SNB-75 CNS): 42.3 µM | TGI (SW-620 colon): 26.7 µM | TGI (TK-10 renal): 26.4 µM | TGI (U251 CNS): 29.3 µM
